Columns and labels:
KDM2A = target: T1, KDM2A (Homo sapiens, UniProt Q9Y2K7); assay: KDM demethylase inhibition (IC50); type: biochemical
T1 sequence (Q9Y2K7 1-1162): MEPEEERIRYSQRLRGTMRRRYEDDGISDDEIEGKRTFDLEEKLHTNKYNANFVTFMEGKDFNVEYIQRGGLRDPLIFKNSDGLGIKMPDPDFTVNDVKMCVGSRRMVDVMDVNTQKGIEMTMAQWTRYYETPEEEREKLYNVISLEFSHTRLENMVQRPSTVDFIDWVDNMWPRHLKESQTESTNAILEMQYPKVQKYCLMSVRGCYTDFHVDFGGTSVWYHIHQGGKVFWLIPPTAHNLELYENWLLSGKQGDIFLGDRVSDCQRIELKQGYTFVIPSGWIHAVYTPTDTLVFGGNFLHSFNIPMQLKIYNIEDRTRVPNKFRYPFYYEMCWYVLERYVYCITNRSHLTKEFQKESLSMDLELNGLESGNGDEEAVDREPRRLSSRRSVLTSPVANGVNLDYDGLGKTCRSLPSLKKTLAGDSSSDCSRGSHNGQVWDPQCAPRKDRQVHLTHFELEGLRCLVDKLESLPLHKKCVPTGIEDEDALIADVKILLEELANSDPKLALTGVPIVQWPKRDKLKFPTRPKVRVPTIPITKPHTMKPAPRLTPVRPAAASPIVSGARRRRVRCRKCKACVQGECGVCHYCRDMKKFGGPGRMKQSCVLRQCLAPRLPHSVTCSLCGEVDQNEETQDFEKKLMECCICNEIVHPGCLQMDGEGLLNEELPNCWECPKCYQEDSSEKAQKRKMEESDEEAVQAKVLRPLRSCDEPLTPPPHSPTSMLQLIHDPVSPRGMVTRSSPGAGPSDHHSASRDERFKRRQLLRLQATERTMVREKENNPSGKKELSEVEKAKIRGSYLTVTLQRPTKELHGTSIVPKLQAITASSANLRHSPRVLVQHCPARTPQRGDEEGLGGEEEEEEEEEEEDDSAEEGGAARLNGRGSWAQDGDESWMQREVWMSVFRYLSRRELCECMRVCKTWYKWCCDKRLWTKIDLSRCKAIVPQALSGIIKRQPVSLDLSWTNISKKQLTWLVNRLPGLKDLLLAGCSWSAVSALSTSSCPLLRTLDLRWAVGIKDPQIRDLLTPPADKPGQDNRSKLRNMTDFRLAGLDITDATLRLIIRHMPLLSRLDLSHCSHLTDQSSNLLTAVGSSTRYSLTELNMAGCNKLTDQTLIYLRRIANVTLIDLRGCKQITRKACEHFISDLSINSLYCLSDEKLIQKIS

KDM2B = target: T2, KDM2B (Homo sapiens, UniProt Q8NHM5); assay: KDM demethylase inhibition (IC50); type: biochemical
T2 sequence (Q8NHM5 1-1336): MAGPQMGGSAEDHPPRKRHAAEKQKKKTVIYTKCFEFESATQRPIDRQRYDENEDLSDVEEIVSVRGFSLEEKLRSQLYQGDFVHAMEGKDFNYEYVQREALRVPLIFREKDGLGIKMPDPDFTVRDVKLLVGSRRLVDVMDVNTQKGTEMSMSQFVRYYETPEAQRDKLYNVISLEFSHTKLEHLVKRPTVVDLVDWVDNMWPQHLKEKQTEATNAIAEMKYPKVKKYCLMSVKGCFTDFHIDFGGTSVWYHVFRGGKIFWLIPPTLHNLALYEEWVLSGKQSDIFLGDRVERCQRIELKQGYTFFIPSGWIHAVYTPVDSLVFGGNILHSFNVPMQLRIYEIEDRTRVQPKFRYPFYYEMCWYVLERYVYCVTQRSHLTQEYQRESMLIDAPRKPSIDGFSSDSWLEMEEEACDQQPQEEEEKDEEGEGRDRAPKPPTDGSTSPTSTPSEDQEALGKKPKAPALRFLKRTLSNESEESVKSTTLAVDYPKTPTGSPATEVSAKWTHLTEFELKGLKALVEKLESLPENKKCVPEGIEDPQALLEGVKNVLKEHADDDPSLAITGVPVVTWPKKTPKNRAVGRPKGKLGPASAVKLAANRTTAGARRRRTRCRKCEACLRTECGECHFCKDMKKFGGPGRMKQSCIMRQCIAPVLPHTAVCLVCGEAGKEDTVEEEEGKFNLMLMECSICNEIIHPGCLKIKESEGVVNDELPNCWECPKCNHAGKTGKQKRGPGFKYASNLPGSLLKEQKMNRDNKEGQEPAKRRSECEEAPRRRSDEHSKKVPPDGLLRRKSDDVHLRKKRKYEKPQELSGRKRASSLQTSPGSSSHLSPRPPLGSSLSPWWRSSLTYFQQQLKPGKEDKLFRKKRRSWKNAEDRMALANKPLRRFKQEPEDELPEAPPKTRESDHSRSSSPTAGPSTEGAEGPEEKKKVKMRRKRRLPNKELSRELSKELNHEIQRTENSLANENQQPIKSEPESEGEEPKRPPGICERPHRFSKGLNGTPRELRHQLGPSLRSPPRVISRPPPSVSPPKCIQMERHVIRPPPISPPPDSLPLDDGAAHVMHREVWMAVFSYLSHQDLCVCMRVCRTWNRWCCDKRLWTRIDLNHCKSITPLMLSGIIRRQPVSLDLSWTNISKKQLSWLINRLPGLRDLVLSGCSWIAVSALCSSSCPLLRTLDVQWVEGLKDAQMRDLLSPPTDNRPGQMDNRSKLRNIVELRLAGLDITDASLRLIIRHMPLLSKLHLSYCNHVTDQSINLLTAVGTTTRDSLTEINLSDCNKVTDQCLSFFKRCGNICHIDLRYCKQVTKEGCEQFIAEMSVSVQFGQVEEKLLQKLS

[1] = Pharmacokinetic study iv/po; type: in vivo; details: Dose iv/po 5/10 mg/kg

With `CN(c1ccccc1)c1ccc2c(c1)CCC[C@H]2CNc1cnccc1C(=O)O` [Compound I, 3-({[(1R)-6-[methyl(phenyl)amino]-1,2,3,4-tetrahydronaphthalen-1-yl]methyl}amino)pyridine-4-carboxylic Acid] the IC50 (KDM2A) was over 10 µM, the IC50 (KDM2B) was over 10 µM and the “po 1/2” value [1] was 2.57 h. For the same molecule, the Vd ([1]; plasma, 5 mg/kg, read-out: Vz (mL/kg), apparent volume of distribution during terminal phase) was 666 mL/kg and the AUC ([1]; plasma) was 10400 ng·h/mL.
